Patent publication US20110071124A1, “Compounds that Inhibit Production of sAPPB and AB and Uses Thereof” (The Trustees of Columbia University in the City of New York, priority 2008, published 2011)

Legend:
[1] = system: sAPPβ in Lenti-APPsw infected primary cortical neurons; assay: sAPPβ IP-Western in Lenti-APPsw infected primary cortical neurons; type: cell-based, mouse; details: 20 μM, 24 hours, normalized to APP
Method: FIG. 15A-D. LDN-0057228 reduces Aβ40 and sAPPβ in primary neurons. DIV-14 primary cortical neurons from wild-type mice were incubated for 24 hours with primary culture media containing lentivirus harboring APPsw. After infection, neurons were incubated for 48 hours with 1:1 fresh to conditioned media to allow for APP expression. Neurons were then treated with LDN-0057228 at 20 μM for 24 hours in triplicate. A) Media was collected for Aβ40 ELISA. Raw Aβ40 values were normalized to APP to control for variations in lentiviral infection efficiency. B) Cell lysates were probed with 6E10 antibody to visualize the transduced full-length APP. C) sAPPβ from neuron culture media was immunoprecipitated with sβsw antibody and probed with LN27. D) Quantification of sAPPβ, normalized to APP. Data in A) and […]) represent mean+s.d. of 3 wells. Bands from B) and C) were quantified using ImageJ software.
Using this experimental paradigm, LDN-0057228 was tested at 20 μM concentration to confirm the sAPPβ- and Aβ-lowering activity of the compound (FIG. 15). The protocol was modified slightly to allow for 24-hour compound treatment. […]
LDN-0057228 caused a 75% reduction in Aβ40 levels (p<0.05) in primary neurons (FIG. 15A). […] The sAPPβ bands were quantified using ImageJ software and normalized to APP, showing a 40% reduction in sAPPβ (p<0.01) for the treated neurons (FIG. 15D).

[2] = weight and overt toxicity in treated Tg2576 mice; type: in vivo; details: 3 mg/kg intraperitoneal, 9 days
Method: (§1) A total of 16 mice were treated with either DMSO (n=8) or 3 mg/kg CNS-2 (n=8). The dosage was selected arbitrarily based on compound solubility in 0.9% normal saline. CNS-2 was dissolved in 0.9% normal saline solution with 1.9% final DMSO concentration. 12- to 13-month old Tg2576 mice were treated with DMSO or CNS-2 via intraperitoneal injection for 9 days (1 injection per day) at an injection volume of 20 μl per gram of weight. Mouse weight was monitored daily, and the total injection volume adjusted accordingly over the course of the 9-day treatment. […] Mice were sacrificed on day 9, 5 hours after the final injection. One hemibrain from each mouse was homogenized and processed for formic acid extraction of plaque Aβ. Total Aβ40 was determined by Aβ ELISA kit and normalized to total protein (FIG. 18).

brain total Aβ40 = brain total Aβ40 in Tg2576 mice after intraperitoneal injection; type: in vivo; details: 3 mg/kg intraperitoneal, 1 injection per day for 9 days, 12- to 13-month old Tg2576 mice; p value greater than 0.05
Method: FIG. 18. CNS-2 reduces brain total Aβ40 in Tg2576 mice. CNS-2 was dissolved in 0.9% normal saline solution with 1.9% DMSO. 12 month old Tg2576 APPsw transgenic mice were treated with 3 mg/kg CNS-2 via intraperitoneal injection at an injection volume of 20 μl per gram. 8 mice per group were treated for 9 days, 1 injection per day. Mice were sacrificed on day 9, 5 hours after the final injection. One hemisphere from each mouse was homogenized, and the homogenate was processed for formic acid extraction of plaque Aβ. After formic acid extraction, total Aβ40 was measured via ELISA kit (BioSource) and normalized to total protein.
as §1, with “One hemibrain from each mouse was homogenized and processed for formic acid extraction of plaque Aβ.” left out

Row | Compound | reduction in sAPPβ [1] [%] | changes in weight and overt signs of toxicity [2] | reduction of brain total Aβ40 (brain total Aβ40) [%]
1 | Fc1ccc(C(OCCN2CCC[C@H]2CNCCc2ccccc2)c2ccc(F)cc2)cc1 [LDN-0057228] | 40 | – | –
2 | O=C(CCc1ccccc1)NC[C@@H]1CCCN1CCOC(c1ccc(F)cc1)c1ccc(F)cc1 [CNS-2] | – | Neither the treated nor control groups exhibited any significant changes in weight or any overt signs of toxicity | 30
